25 compounds from patent publication US11377469B2, “CD73 inhibitors” (ORIC Pharmaceuticals, Inc., priority 2017, dated 2022) can be followed below.

Molecules are shown by their SMILES.

In this experiment the target is CD73 (Homo sapiens (Human), UniProt P21589). As to the kind of experiment: Biochemical Assay (CD73 inhibition, AMP hydrolysis, Malachite Green readout). As to conditions: CD73 0.3208 nM, AMP 15 μM, Tris-HCl pH 7.4, Malachite Green absorbance.
Sequence of CD73 (P21589 27-574): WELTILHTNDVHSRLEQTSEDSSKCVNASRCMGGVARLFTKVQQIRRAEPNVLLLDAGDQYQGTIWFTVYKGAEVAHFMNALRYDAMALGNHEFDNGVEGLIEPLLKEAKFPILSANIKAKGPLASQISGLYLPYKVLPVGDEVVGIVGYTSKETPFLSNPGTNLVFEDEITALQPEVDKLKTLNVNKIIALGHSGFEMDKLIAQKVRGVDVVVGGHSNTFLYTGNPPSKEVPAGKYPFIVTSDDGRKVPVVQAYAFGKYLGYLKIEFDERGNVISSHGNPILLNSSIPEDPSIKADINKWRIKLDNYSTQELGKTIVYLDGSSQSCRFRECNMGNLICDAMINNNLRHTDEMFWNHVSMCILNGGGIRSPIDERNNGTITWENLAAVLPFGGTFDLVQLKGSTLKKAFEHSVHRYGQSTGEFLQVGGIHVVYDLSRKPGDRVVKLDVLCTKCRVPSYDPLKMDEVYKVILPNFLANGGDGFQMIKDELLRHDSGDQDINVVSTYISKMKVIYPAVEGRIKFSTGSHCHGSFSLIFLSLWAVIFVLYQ
As a reminder, the IC50 is the concentration that inhibits the measured activity by half. For `CCC(CC)Nc1nc(Cl)nc2c1cnn2[C@@H]1O[C@H](COCP(=O)(O)O)[C@@H](O)[C@H]1O` [Example 78, ((((2R,3S,4R,5R)-5-(6-chloro-4-(pentan-3-ylamino)-1H-pyrazolo[3,4-d]pyrimidin-1-yl)-3,4-dihydroxytetrahydrofuran-2-yl)methoxy)methyl)phosphonic acid], the IC50 was at most 500 nM. Compound `CC1(CNc2nc(Cl)nc3c2cnn3[C@@H]2O[C@H](COCP(=O)(O)O)[C@@H](O)[C@H]2O)CC1` [Example 96, ((((2R,3S,4R,5R)-5-(6-chloro-4-(((1-methylcyclopropyl)methyl)amino)-1H-pyrazolo[3,4-d]pyrimidin-1-yl)-3,4-dihydroxytetrahydrofuran-2-yl)methoxy)methyl)phosphonic acid] yielded an IC50 of at most 500 nM. With `CC(C)(O)c1nc(NC2CCCC2)c2cnn([C@@H]3O[C@H](COCP(=O)(O)O)[C@@H](O)[C@H]3O)c2n1` [Example 132, ((((2R,3S,4R,5R)-5-(4-(cyclopentylamino)-6-(2-hydroxypropan-2-yl)-1H-pyrazolo[3,4-d]pyrimidin-1-yl)-3,4-dihydroxytetrahydrofuran-2-yl)methoxy)methyl)phosphonic acid], the half-inhibitory concentration (IC50) is over 1000 nM.

As to `C[C@H](Nc1nc(Cl)nc2c1nnn2[C@@H]1O[C@H](CS(=O)(=O)CP(=O)(O)O)[C@@H](O)[C@H]1O)c1ccc(F)cc1` [Example 114], the IC50 is at most 500 nM. `C[C@@H](OCP(=O)(O)O)[C@H]1O[C@@H](n2ncc3c(NCc4ccccc4Cl)nc(Cl)nc32)[C@H](O)[C@@H]1O` [Example 60, (((R)-1-((2S,3S,4R,5R)-5-(6-chloro-4-((2-chlorobenzyl)amino)-1H-pyrazolo[3,4-d]pyrimidin-1-yl)-3,4-dihydroxytetrahydrofuran-2-yl)ethoxy)methyl)phosphonic acid]: the IC50 was over 1000 nM.

The compound `O=P(O)(O)COC[C@H]1O[C@@H](n2ncc3c(NCc4cccc(Cl)c4)nc(Cl)nc32)[C@H](O)[C@@H]1O` [Example 27, ((((2R,3S,4R,5R)-5-(6-chloro-4-((3-chlorobenzyl)amino)-1H-pyrazolo[3,4-d]pyrimidin-1-yl)-3,4-dihydroxytetrahydrofuran-2-yl)methoxy)methyl)phosphonic acid] returned an IC50 of at most 500 nM. As to `N#CC1(CNc2nc(Cl)nc3c2cnn3[C@@H]2O[C@H](COCP(=O)(O)O)[C@@H](O)[C@H]2O)CC1` [Example 138, ((((2R,3S,4R,5R)-5-(6-chloro-4-(((1-cyanocyclopropyl)methyl)amino)-1H-pyrazolo[3,4-d]pyrimidin-1-yl)-3,4-dihydroxytetrahydrofuran-2-yl)methoxy)methyl)phosphonic acid], the IC50 is at most 500 nM. Next, `O=P(O)(O)COC[C@H]1O[C@@H](n2ncc3c(NCc4ccccc4Cl)nc(CO)nc32)[C@H](O)[C@@H]1O` [Example 17, ((((2R,3S,4R,5R)-5-(4-((2-Chlorobenzyl)amino)-6-(hydroxymethyl)-1H-pyrazolo[3,4-d]pyrimidin-1-yl)-3,4-dihydroxytetrahydrofuran-2-yl)methoxy)methyl)phosphonic acid]: at most 500 nM; `O=P(O)(O)COC[C@H]1O[C@@H](n2ncc3c(N4CCC4)nc(Cl)nc32)[C@H](O)[C@@H]1O` [Example 83, ((((2R,3S,4R,5R)-5-(4-(azetidin-1-yl)-6-chloro-1H-pyrazolo[3,4-d]pyrimidin-1-yl)-3,4-dihydroxytetrahydrofuran-2-yl)methoxy)methyl)phosphonic acid]: at most 500 nM; `N#Cc1cccc(CNc2nc(Cl)nc3c2cnn3[C@@H]2O[C@H](COCP(=O)(O)O)[C@@H](O)[C@H]2O)c1` [Example 46, ((((2R,3S,4R,5R)-5-(6-chloro-4-((3-cyanobenzyl)amino)-1H-pyrazolo[3,4-d]pyrimidin-1-yl)-3,4-dihydroxytetrahydrofuran-2-yl)methoxy)methyl)phosphonic acid]: at most 500 nM. The compound `O=C(CP(=O)(O)O)N(Cc1ccccc1)C[C@H]1O[C@@H](n2ncc3c(NCc4ccccc4Cl)nc(Cl)nc32)[C@H](O)[C@@H]1O` [Example 28, (2-(benzyl(((2R,3S,4R,5R)-5-(6-chloro-4-((2-chlorobenzyl)amino)-1H-pyrazolo[3,4-d]pyrimidin-1-yl)-3,4-dihydroxytetrahydrofuran-2-yl)methyl)amino)-2-oxoethyl)phosphonic acid] had a 50% inhibitory concentration (IC50) of over 1000 nM. `O=P(O)(O)COC[C@H]1O[C@@H](n2ncc3c(NC[C@H]4CCOC4)nc(Cl)nc32)[C@H](O)[C@@H]1O` [Example 45, ((((2R,3S,4R,5R)-5-(6-chloro-4-((((R)-tetrahydrofuran-3-yl)methyl)amino)-1H-pyrazolo[3,4-d]pyrimidin-1-yl)-3,4-dihydroxytetrahydrofuran-2-yl)methoxy)methyl)phosphonic acid] gave an IC50 of at most 500 nM. As to `CN(c1nc(Cl)nc2c1nnn2[C@@H]1O[C@H](COCP(=O)(O)O)[C@@H](O)[C@H]1O)[C@H]1CCc2ccccc21` [Example 26, ((((2R,3S,4R,5R)-5-(5-chloro-7-(((S)-2,3-dihydro-1H-inden-1-yl)(methyl)amino)-3H-[1,2,3]triazolo[4,5-d]pyrimidin-3-yl)-3,4-dihydroxytetrahydrofuran-2-yl)methoxy)methyl)phosphonic acid], the IC50 was in the range of 500 to 1000 nM. Compound `CN(CC1CC1)c1nc(Cl)nc2c1cnn2[C@@H]1O[C@H](COCP(=O)(O)O)[C@@H](O)[C@H]1O` [Example 72, ((((2R,3S,4R,5R)-5-(6-chloro-4-((cyclopropylmethyl)(methyl)amino)-1H-pyrazolo[3,4-d]pyrimidin-1-yl)-3,4-dihydroxytetrahydrofuran-2-yl)methoxy)methyl)phosphonic acid] displayed an IC50 of at most 500 nM. On to `CN(C[C@H]1O[C@@H](n2ncc3c(NC4CCCC4)nc(Cl)nc32)[C@H](O)[C@@H]1O)C(=O)CP(=O)(O)O` [Example 109, (2-((((2R,3S,4R,5R)-5-(6-chloro-4-(cyclopentylamino)-1H-pyrazolo[3,4-d]pyrimidin-1-yl)-3,4-dihydroxytetrahydrofuran-2-yl)methyl)(methyl)amino)-2-oxoethyl)phosphonic acid], for which the IC50 was at most 500 nM. `O=P(O)(O)CS(=O)(=O)C[C@H]1O[C@@H](n2ncc3c(NCc4ccccc4Cl)nc(Cl)nc32)[C@H](O)[C@@H]1O` [Example 14, (((((2S,3S,4R,5R)-5-(6-Chloro-4-((2-chlorobenzyl)amino)-1H-pyrazolo[3,4-d]pyrimidin-1-yl)-3,4-dihydroxytetrahydrofuran-2-yl)methyl)sulfonyl)methyl)phosphonic acid] gave an IC50 of at most 500 nM. `O=C(CP(=O)(O)O)NC[C@H]1O[C@@H](n2ncc3c(NCc4ccccc4Cl)nc(Cl)nc32)[C@H](O)[C@@H]1O` [Example 2, (2-((((2R,3S,4R,5R)-5-(6-Chloro-4-((2-chlorobenzyl)amino)-1H-pyrazolo[3,4-d]pyrimidin-1-yl)-3,4-dihydroxytetrahydrofuran-2-yl)methyl)amino)-2-oxoethyl)phosphonic acid]: the IC50 was over 1000 nM.

The compound `CC(C)CN(C[C@H]1O[C@@H](n2ncc3c(NCc4ccccc4Cl)nc(Cl)nc32)[C@H](O)[C@@H]1O)C(=O)CP(=O)(O)O` [Example 20, (2-((((2R,3S,4R,5R)-5-(6-Chloro-4-((2-chlorobenzyl)amino)-1H-pyrazolo[3,4-d]pyrimidin-1-yl)-3,4-dihydroxytetrahydrofuran-2-yl)methyl)(isobutyl)amino)-2-oxoethyl)phosphonic acid] had a half-maximal inhibitory concentration (IC50) of over 1000 nM. `O=P(O)(O)COC[C@H]1O[C@@H](n2ncc3c(NC[C@H]4CCCO4)nc(Cl)nc32)[C@H](O)[C@@H]1O` [Example 70, ((((2R,3S,4R,5R)-5-(6-chloro-4-((((R)-tetrahydrofuran-2-yl)methyl)amino)-1H-pyrazolo[3,4-d]pyrimidin-1-yl)-3,4-dihydroxytetrahydrofuran-2-yl)methoxy)methyl)phosphonic acid] had an IC50 of at most 500 nM. In the case of `O=P(O)(O)CS(=O)(=O)C[C@H]1O[C@@H](n2ncc3c(NC4CCCC4)nc(CO)nc32)[C@H](O)[C@@H]1O` [Example 125, (((((2S,3S,4R,5R)-5-(4-(cyclopentylamino)-6-(hydroxymethyl)-1H-pyrazolo[3,4-d]pyrimidin-1-yl)-3,4-dihydroxytetrahydrofuran-2-yl)methyl)sulfonyl)methyl)phosphonic acid], the IC50 is at most 500 nM. Consider `Cc1ccc(-c2nc(Cl)nc3c2cnn3[C@@H]2O[C@H](COCP(=O)(O)O)[C@@H](O)[C@H]2O)o1` [Example 100, ((((2R,3S,4R,5R)-5-(6-chloro-4-(5-methylfuran-2-yl)-1H-pyrazolo[3,4-d]pyrimidin-1-yl)-3,4-dihydroxytetrahydrofuran-2-yl)methoxy)methyl)phosphonic acid], for which the IC50 was at most 500 nM.

As to `O=P(O)(O)COCC[C@H]1O[C@@H](n2ncc3c(NCC4CC4)nc(Cl)nc32)[C@H](O)[C@@H]1O` [Example 85, ((2-((2R,3S,4R,5R)-5-(6-chloro-4-((cyclopropylmethyl)amino)-1H-pyrazolo[3,4-d]pyrimidin-1-yl)-3,4-dihydroxytetrahydrofuran-2-yl)ethoxy)methyl)phosphonic acid], the IC50 is over 1000 nM. Turning to `Cc1cc2c(NCC3CC3)nc(Cl)nc2n1[C@@H]1O[C@H](COCP(=O)(O)O)[C@@H](O)[C@H]1O` [Example 97, ((((2R,3S,4R,5R)-5-(2-chloro-4-((cyclopropylmethyl)amino)-6-methyl-7H-pyrrolo[2,3-d]pyrimidin-7-yl)-3,4-dihydroxytetrahydrofuran-2-yl)methoxy)methyl)phosphonic acid], the IC50 was over 1000 nM.

Regarding `O=P(O)(O)CS(=O)(=O)C[C@H]1O[C@@H](n2ncc3c(NCC4CC4)nc(Cl)nc32)[C@H](O)[C@@H]1O` [Example 62], the IC50 is at most 500 nM.

Compound `C[C@H](Nc1nc(Cl)nc2c1cnn2[C@@H]1O[C@H](COCP(=O)(O)O)[C@@H](O)[C@H]1O)c1ccccc1Cl` [Example 33, ((((2R,3S,4R,5R)-5-(6-chloro-4-(((S)-1-(2-chlorophenyl)ethyl)amino)-1H-pyrazolo[3,4-d]pyrimidin-1-yl)-3,4-dihydroxytetrahydrofuran-2-yl)methoxy)methyl)phosphonic acid] displayed an IC50 of at most 500 nM.
